Earlier results in patent EP3290033A2, “PHARMACEUTICAL PACKAGE” (Samyang Biopharmaceuticals Corporation, priority 2015, dated 2016).

Tests used:
[1] = in vivo
[2] = higher than that of other first-generation 5-HT3 receptor antagonists

Question: What does the source list for `O=C1c2cccc3c2[C@H](CCC3)CN1[C@@H]1CN2CCC1CC2` [palonosetron, (3aS)-2-[(3S)-1-azabicyclo[2.2.2]oct-3-yl]-2,3,3a,4,5,6-hexahydro-1H-benz[de]isoquinolin-1-one]?
Answer: half-life [1]: ≥ 40 h; inhibitory effect on delayed vomiting [2]: 10 times
